In one assay the test system is M14 melanoma cells. Put plainly: Cytotoxicity in confluent M14 cells, cell viability by CCK8 assay. The following applies: Homo sapiens, 48 h incubation, 0.25% DMSO, n=4. The format is cell-based. On the procedure:
M14 melanoma cells were seeded at 50,000 cells per well of 96-well plate in 100 μl of Dulbecco's minimum essential medium (DMEM) supplemented with 10% fetal bovine serum. Cells were cultured at 37° C. under 5% CO2-95% air. After 16 hours of incubation, the test compound was added to the cell culture. The compound was first diluted in 100% dimethyl sulfoxide (DMSO) at 400-fold of the final concentrations actually used in the assay. The DMSO solution was next diluted 20 fold with the culture medium, and then finally added to the assay wells at another 20-fold dilution. Assay medium included the test compound with concentrations as indicated with 0.25% DMSO. Cell viability was measured with a CCK8 assay (as described in the Technical Manual for Cell Counting Kit-8, Product #CK04-11, CK04-13 and CK04-20, Dojindo Molecular Technologies, Inc. MD, Tantular, I. S., et al. Tropical Medicine and International Health, 8(6), 569-574, 2003) in the last 15 minutes after a 48 h incubation with the test compound. Each bar of the figure expresses average percent inhibition against vehicle (0.25% DMSO) control (n=4).
(Formazan colour is commonly taken as a measure of viable cells.)

The test system of assay [1] is stage IV metastatic melanoma. Particulars: in combination with paclitaxel, relative to patients treated with paclitaxel alone; cited from earlier work.

A value given as a limit tells only on which side of the number the result lay.

In US8461199B2, “Transition metal complexes of a bis[thio-hydrazide amide] compound” (Synta Pharmaceuticals Corp., priority 2008, dated 2013) one finds IC50 and time to progression data, which are given here for one molecule.

In general, IC50 refers to the concentration that gives 50% inhibition.

In the assay on M14 melanoma cells, `CN(NC(=O)CC(=O)NN(C)C(=S)c1ccccc1)C(=S)c1ccccc1` [compound A, N-malonyl-bis(N′-methyl-N′-thiobenzoylhydrazide)] yielded an IC50 greater than 12.5 µM. In assay [1], the time to progression entry is listed as “increase the time to progression”.
